Experimental findings from patent US11807650B2, “NMDA receptor modulators and uses thereof” (Novartis AG, priority 2016, dated 2023) are described below.

T1 sequence (O15399 28-1336, other chains not shown): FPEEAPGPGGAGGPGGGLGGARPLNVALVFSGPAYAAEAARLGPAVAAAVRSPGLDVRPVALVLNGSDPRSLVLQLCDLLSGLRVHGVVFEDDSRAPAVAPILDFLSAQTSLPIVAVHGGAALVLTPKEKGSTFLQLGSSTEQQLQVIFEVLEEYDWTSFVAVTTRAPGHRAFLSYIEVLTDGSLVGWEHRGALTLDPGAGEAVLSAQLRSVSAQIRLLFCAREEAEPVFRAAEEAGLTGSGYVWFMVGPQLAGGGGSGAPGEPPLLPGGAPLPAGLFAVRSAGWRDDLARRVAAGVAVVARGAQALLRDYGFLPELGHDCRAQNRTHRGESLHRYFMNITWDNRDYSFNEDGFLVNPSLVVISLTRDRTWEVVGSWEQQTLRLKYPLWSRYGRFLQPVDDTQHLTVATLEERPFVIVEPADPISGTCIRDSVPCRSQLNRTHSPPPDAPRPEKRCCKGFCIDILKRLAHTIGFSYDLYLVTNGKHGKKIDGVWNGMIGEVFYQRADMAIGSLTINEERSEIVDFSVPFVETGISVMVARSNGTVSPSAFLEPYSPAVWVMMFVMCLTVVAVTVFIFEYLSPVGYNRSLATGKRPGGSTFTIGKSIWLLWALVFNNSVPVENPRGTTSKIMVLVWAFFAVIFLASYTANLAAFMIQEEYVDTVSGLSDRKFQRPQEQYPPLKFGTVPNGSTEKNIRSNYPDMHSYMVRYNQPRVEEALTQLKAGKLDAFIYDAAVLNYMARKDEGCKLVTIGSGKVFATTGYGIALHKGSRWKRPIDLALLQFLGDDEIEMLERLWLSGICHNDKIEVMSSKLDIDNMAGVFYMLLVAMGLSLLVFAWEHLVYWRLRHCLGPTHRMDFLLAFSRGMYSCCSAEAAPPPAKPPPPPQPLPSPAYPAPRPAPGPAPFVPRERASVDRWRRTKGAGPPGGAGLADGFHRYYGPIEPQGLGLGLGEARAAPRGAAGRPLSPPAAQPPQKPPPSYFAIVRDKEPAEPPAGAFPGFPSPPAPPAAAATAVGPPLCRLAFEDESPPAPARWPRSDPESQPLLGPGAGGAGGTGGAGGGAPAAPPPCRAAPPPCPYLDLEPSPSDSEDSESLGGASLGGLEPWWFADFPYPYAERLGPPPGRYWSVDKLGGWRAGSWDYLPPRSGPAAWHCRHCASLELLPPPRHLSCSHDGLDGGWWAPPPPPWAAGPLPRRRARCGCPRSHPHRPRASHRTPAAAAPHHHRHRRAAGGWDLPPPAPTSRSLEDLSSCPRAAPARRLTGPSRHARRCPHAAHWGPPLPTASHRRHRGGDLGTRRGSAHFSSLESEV

This assay addresses T1, human GRIN1 (transcript variant NR1-3) and GRIN2D expressed in Xenopus oocytes (Homo sapiens, UniProt O15399).
T1 construct: GenScript (GRIN2D synthesis) SC115601; host or cells: Xenopus oocytes injected with cRNA (1 GluN1 : 2 GluN2)
Briefly: NR2D oocyte potentiation assay (two-electrode voltage clamp). It is filed as cell-based. The note with it: 10 uM test compound; glutamate and glycine 10 μM each; holding potential −40 mV. The method, then: NR2D Oocyte Potentiation Assay. Xenopus oocytes (Xenopus 1, Dexter, Mich.) were initially separated from the lobes of an ovary using surgical forceps; they were then defolliculated by constant agitation at room temperature in OR-2 buffer (82.5 mM NaCl; 2.5 mM KCl; 1 mM MgCl2; 5 mM HEPES; pH 7.4) containing 2 mg/ml collagenase Type 1 (Fisher Scientific, USA) for 1.5-2 hours. The cells were then gently aspirated with a Pasteur pipette to remove the follicular tissue; this was followed by washing three times with OR-2 to remove all traces of collagenase. The oocytes were then washed in ND-96 (96 mM NaCl, 2 mM KCl, 1.8 mM CaCl2, 1 mM MgCl2, 5 mM HEPES, 50 ng/L gentamycin, 100 units/ml penicillin and 100 μg/ml streptomycin; pH 7.6) three times and this was followed by incubation in ND-96 at room temperature with mild agitation for 15 minutes; subsequently they were stored for at least 2 hours at 16° C. before sorting and selection for injection. Oocytes selected for injection were incubated overnight in ND-96 at 16° C.
The human GRIN1 (transcript variant NR1-3 (Origene, SKU #: SC115601, Rockville, Md.) and GRIN2D (NCBI locus NM_000836, sequence optimized and synthesized by GenScript) were linearized and transcribed using the mMessage mMachine kit (Life Technologies) and promoters SP6 (for GluN1) and T7 (for GluN2D). cRNAs were mixed together at a ratio of 1 GluN1:2 GluN2. Each oocyte was injected with 50 nL of cRNA and stored in ND96 (96 mM NaCl, 2 mM KCl, 1.8 mM CaCl2, 1 mM MgCl2, 5 mM HEPES, 50 ng/L gentamycin, 100 units/ml penicillin and 100 μg/ml streptomycin; pH 7.6) at 16° C. for 72 h prior to recording.
Currents were recorded using a two-electrode voltage-clamp amplifier (Oocyte Clamp OC-725C; Warner Instrument Corp, Hamden, Conn.), and digitized using Digidata 1550A and pClamp (v. 10) software (Molecular Devices, Sunnyvale, Calif.). Electrodes were filled with 3 M KCl and had resistances that ranged from 0.2-1 MO. All measurements were made at a holding potential of −40 mV. Cells were continuously perfused with oocyte recording solution containing 90 mM NaCl, 1 mM KCl, 0.5 mM BaCl2, and 10 mM HEPES (Ph 7.4). Glutamate and Glycine (co-agonists) were applied at respective concentrations of 10 μM each. Co-agonists were applied until a plateau was reached, and test compounds were then added in the continued presence of co-agonists until a new plateau was reached. After the addition of the last test compound concentration, the oocyte was washed with oocyte recording buffer. Fraction of current remaining was calculated as [(current in presence of test compound−background current)/(co-agonist current−background current)] and IC50 values were computed using Prism 6.0 (Graphpad).
For orientation: In two-electrode clamp one electrode senses voltage and the other passes current.
`CC(C)(CF)c1ccc(-c2nc3n(c(=O)c2C#N)CCCS3)cn1` [Example 152, 8-(6-(1-fluoro-2-methylpropan-2-yl)pyridin-3-yl)-6-oxo-3,4-dihydro-2H,6H-pyrimido[2,1-b][1,3]thiazine-7-carbonitrile]: the activation at 10 µM is 100 to 500%.
As for `C=Cc1c(-c2ccc(C(C)(C)C)cc2)nc2n(c1=O)CCCC2` [Example 14, 2-(4-(tert-butyl)phenyl)-3-vinyl-6,7,8,9-tetrahydro-4H-pyrido[1,2-a]pyrimidin-4-one], the activation at 10 µM is below 10%.
`CC(C)(C)c1ncc(-c2nc3n(c(=O)c2C#N)CC(CO)CS3)cn1` (centres unmarked) [Example 90, 8-(2-(tert-butyl)pyrimidin-5-yl)-3-(hydroxymethyl)-6-oxo-3,4-dihydro-2H,6H-pyrimido[2,1-b][1,3]thiazine-7-carbonitrile]: the activation at 10 µM lay within 500 to 1000%.
Take `C[C@H]1CSc2cc(-c3cnc(C(C)(C)C)c(F)c3)c(C#N)c(=O)n2C1` [Example 106, (R)-8-(6-(tert-butyl)-5-fluoropyridin-3-yl)-3-methyl-6-oxo-3,4-dihydro-2H,6H-pyrido[2,1-b][1,3]thiazine-7-carbonitrile]: the activation at 10 µM is above 1000%.
Turning to `CC1CSc2nc(-c3ccc(N4CC(C)(F)C4)nc3)c(C#N)c(=O)n2C1` (centres unmarked) [Example 51, 8-(6-(3-fluoro-3-methylazetidin-1-yl)pyridin-3-yl)-3-methyl-6-oxo-3,4-dihydro-2H,6H-pyrimido[2,1-b][1,3]thiazine-7-carbonitrile], the “NR2D Oocyte % Potentiation @ 10 uM” value is recorded as “Inhibitor”.
`CC(C)(C)c1ccc(-c2nc3n(c(=O)c2Br)CCCS3)cn1` [Example 30, 7-bromo-8-(6-(tert-butyl)pyridin-3-yl)-3,4-dihydro-2H,6H-pyrimido[2,1-b][1,3]thiazin-6-one]: the activation at 10 µM fell in the range of 100 to 500%.
As for `CCN1CSc2nc(-c3ccc(C(C)(C)C)nc3)c(C#N)c(=O)n2C1` [Example 9, 8-(6-(tert-butyl)pyridin-3-yl)-3-ethyl-6-oxo-3,4-dihydro-2H,6H-pyrimido[2,1-b][1,3,5]thiadiazine-7-carbonitrile], the activation at 10 µM lay within 10 to 100%.
`CC1(F)CN(c2ccc(-c3nc4n(c(=O)c3C#N)CCCS4)cn2)C1` [Example 53, 8-(6-(3-fluoro-3-methylazetidin-1-yl)pyridin-3-yl)-6-oxo-3,4-dihydro-2H,6H-pyrimido[2,1-b][1,3]thiazine-7-carbonitrile]: the “NR2D Oocyte % Potentiation @ 10 uM” value is given as “Inhibitor”.
For `COC(=O)C1CSc2nc(-c3cnc(C(C)(C)C)nc3)c(C#N)c(=O)n2C1` (centres unmarked) [Example 89, methyl 8-(2-(tert-butyl)pyrimidin-5-yl)-7-cyano-6-oxo-3,4-dihydro-2H,6H-pyrimido[2,1-b][1,3]thiazine-3-carboxylate], the activation at 10 µM fell in the range of 100 to 500%.
On the same count and under the same terms, with `Cc1ccc2nc(-c3ccc(C(C)(C)C)nc3)c(C#N)c(=O)n2c1` [Example 21, 2-(6-(tert-butyl)pyridin-3-yl)-7-methyl-4-oxo-4H-pyrido[1,2-a]pyrimidine-3-carbonitrile] the figure was 100 to 500%; with `CC1CSc2nc(-c3ccc(C45CC(C4)C5)nc3)c(C#N)c(=O)n2C1` (centres unmarked) [Example 148, 8-(6-(bicyclo[1.1.1]pentan-1-yl)pyridin-3-yl)-3-methyl-6-oxo-3,4-dihydro-2H,6H-pyrimido[2,1-b][1,3]thiazine-7-carbonitrile], 100 to 500%; with `CCOC(=O)c1ccc(-c2nc3n(c(=O)c2C#N)CC(C)CS3)cn1` (centres unmarked) [Example 84, ethyl 5-(7-cyano-3-methyl-6-oxo-3,4-dihydro-2H,6H-pyrimido[2,1-b][1,3]thiazin-8-yl)picolinate], below 10%.
In the case of `CC1CSc2cc(-c3cnc(C(C)(C)C)c(F)c3)c(C#N)c(=O)n2C1` (centres unmarked) [Example 103, 8-(6-(tert-butyl)-5-fluoropyridin-3-yl)-3-methyl-6-oxo-3,4-dihydro-2H,6H-pyrido[2,1-b][1,3]thiazine-7-carbonitrile], the activation at 10 µM was above 1000%.
Consider `CC1CSc2nc(-c3cccnc3C34CC(C3)C4)c(C#N)c(=O)n2C1` (centres unmarked) [Example 149, 8-(2-(bicyclo[1.1.1]pentan-1-yl)pyridin-3-yl)-3-methyl-6-oxo-3,4-dihydro-2H,6H-pyrimido[2,1-b][1,3]thiazine-7-carbonitrile], for which the activation at 10 µM was below 10%.
For `CCOC(C)(C)c1ccc(-c2nc3n(c(=O)c2C#N)CC(C)CS3)cn1` (centres unmarked) [Example 121, 8-(6-(2-ethoxypropan-2-yl)pyridin-3-yl)-3-methyl-6-oxo-3,4-dihydro-2H,6H-pyrimido[2,1-b][1,3]thiazine-7-carbonitrile], the “NR2D Oocyte % Potentiation @ 10 uM” value is recorded as “Inhibitor”.
For the molecule `CC(C)(C)c1ncc(-c2nc3n(c(=O)c2C#N)C[C@H](CF)CS3)cn1` [Example 142, (R)-8-(2-(tert-butyl)pyrimidin-5-yl)-3-(fluoromethyl)-6-oxo-3,4-dihydro-2H,6H-pyrimido[2,1-b][1,3]thiazine-7-carbonitrile], the activation at 10 µM lay in the range of 500 to 1000%.
Consider `CC1CSc2nc(-c3ccc(C(C)(C)CF)nc3)c(C#N)c(=O)n2C1` (centres unmarked) [Example 151, 8-(6-(1-fluoro-2-methylpropan-2-yl)pyridin-3-yl)-3-methyl-6-oxo-3 4-dihydro-2H,6H-pyrimido[2,1-b][1,3]thiazine-7-carbonitrile], for which the activation at 10 µM fell in the range of 500 to 1000%.
`CSc1cc(-c2nc3n(c(=O)c2C#N)CC(C)CS3)cnc1C(C)(C)C` (centres unmarked) [Example 61, 8-(6-(tert-butyl)-5-(methylthio)pyridin-3-yl)-3-methyl-6-oxo-3,4-dihydro-2H,6H-pyrimido[2,1-b][1,3]thiazine-7-carbonitrile]: the activation at 10 µM is above 1000%.
Regarding `CC1CSc2nc(-c3ccc(C(C)(C)O)nc3)c(C#N)c(=O)n2C1` (centres unmarked) [Example 85, 8-(6-(2-hydroxypropan-2-yl)pyridin-3-yl)-3-methyl-6-oxo-3,4-dihydro-2H,6H-pyrimido[2,1-b][1,3]thiazine-7-carbonitrile], the activation at 10 µM was in the range of 10 to 100%.
Take `C[C@@H]1CSc2nc(-c3cnc(C(C)(C)C)nc3)c(C#N)c(=N)n2C1` [Example 101, (S)-8-(2-(tert-butyl)pyrimidin-5-yl)-6-imino-3-methyl-3,4-dihydro-2H,6H-pyrimido[2,1-b][1,3]thiazine-7-carbonitrile]: the activation at 10 µM was above 1000%.
For `CCOC(C)(C)c1ccc(-c2nc3n(c(=O)c2C#N)CCCS3)cn1` [Example 122, 8-(6-(2-ethoxypropan-2-yl)pyridin-3-yl)-6-oxo-3,4-dihydro-2H,6H-pyrimido[2,1-b][1,3]thiazine-7-carbonitrile], the “NR2D Oocyte % Potentiation @ 10 uM” value is listed as “Inhibitor”.
For the molecule `C=Cc1c(-c2ccc(C(C)(C)C)nc2)nc2n(c1=O)CCCS2` [Example 33, 8-(6-tert-butylpyridin-3-yl)-7-ethenyl-2H, 3H,4H,6H-pyrimido [2,1-b][1,3] thiazin-6-one], the activation at 10 µM was 10 to 100%.
On the same count and under the same terms, with `C[C@@H]1CSc2nc(-c3cnc(C(C)(C)C)c(F)c3)c(C#N)c(=N)n2C1` [Example 113, (S)-8-(6-(tert-butyl)-5-fluoropyridin-3-yl)-6-imino-3-methyl-3,4-dihydro-2H,6H-pyrimido[2,1-b][1,3]thiazine-7-carbonitrile] the figure was above 1000%; with `CSc1c(-c2ccc(C(C)(C)C)nc2)nc2n(c1=O)CCCC2` [Example 27, 2-(6-tert-butylpyridin-3-yl)-3-(methylsulfanyl)-4H,6H,7H, 8H,9H-pyrido[1,2-a] pyrimidin-4-one], below 10%.
As for `CC1CSc2nc(-c3cnc(C(C)(C)C)c(Br)c3)c(C#N)c(=O)n2C1` (centres unmarked) [Example 58, 8-(5-bromo-6-(tert-butyl)pyridin-3-yl)-3-methyl-6-oxo-3,4-dihydro-2H,6H-pyrimido[2,1-b][1,3]thiazine-7-carbonitrile], the activation at 10 µM was above 1000%.
On to `CN(C)C(C)(C)c1ccc(-c2nc3n(c(=O)c2C#N)CCCS3)cn1` [Example 128, 8-(6-(2-(dimethylamino)propan-2-yl)pyridin-3-yl)-6-oxo-3,4-dihydro-2H,6H-pyrimido[2,1-b][1,3]thiazine-7-carbonitrile], for which the activation at 10 µM is below 10%.
